Experimental data from patent US20220242853A1, “MODIFIED CYANINE DYES AND CONJUGATES THEREOF” (BRACCO IMAGING S.P.A., priority 2019, published 2022).

Assays:
[1] = target: T1, human recombinant integrin αvβ3 (Homo sapiens, UniProt P05106+P06756); experiment: Integrin receptor affinity ELISA (vitronectin-coated plates); type: binding; settings: tested in duplicate; read-out: Receptor affinity (IC50)
T1 construct: purchased R&D Systems

[2] = system: WM-266-4 human melanoma cells; experiment: Cell uptake by flow cytometry (FACS); type: cell-based
Method: The human melanoma cell line WM-266-4 (ATCC, CRL-1676) was used as in vitro model to assess the cell uptake of representative integrin-binding Compounds 1 and 3, based on the high expression of the integrin receptors, particularly αvβ3, on the membrane of these cells (Capasso et al., PlosOne 2014).
Adherent cells at about 70% confluence were incubated with the compounds 1 or 3 (1 μM) for 2h at 37° C. (5% CO2) in presence of Dulbecco's Modified Eagle's Medium (DMEM) supplemented with 10% FBS, 2 mM glutamine, 100 IU/mL penicillin and 100 μg/mL streptomycin. After two washing steps with PBS, cells were detached using 0.1 mM EDTA in PBS, centrifuged and suspended in buffer (PBS, 0.5% BSA, 0.1% NaN3) for flow cytometry experiments. Fluorescence Activated Cell Sorting (FACS) was used to detect the fluorescence signal within the cells, as measure of cell uptake. Samples were excited with an Argon laser and the emission detected using a 670 nm longpass filter. Values of fluorescence intensity were obtained from the histogram statistic produced by the instrument software.
The residual internalization was calculated by considering the value of fluorescence intensity in absence of the competitor as 100%.
Furthermore, to assess the effect of biological fluids on the cell uptake, parallel experiments were performed incubating the cells with a compounds of the invention in presence of human serum from male AB plasma (Sigma Aldrich, H4522) or human albumin (Sigma Aldrich, A9511). The residual internalization was calculated by considering the value of fluorescence intensity in absence of the serum as 100%. Such uptake assessment also represents an indication of the percentage of compound which is sequestered by the plasma proteins, in particular albumin, when it diffuses through the vascular compartment before reaching the tissue of interest and the particular targeted receptor.

[3] = Optical properties: excitation/emission maxima and absolute fluorescence quantum yield; type: physicochemical
Method: Analysis were performed with a Waters Atlantis dC18 5 μm, 4.6×150 mm column using a gradient of phase A CH3COONH4 10 mM and phase B acetonitrile. Measured mass/charge ratios are listed for each compound. A dual-beam UV-VIS spectrophotometer (Lambda 40, Perkin Elmer) was used to determine the absorbance (Abs) of the compounds of the invention. […] The measurements were performed using an excitation wavelength at maximum absorbance of different dyes, and the sample was excited with a […] Xenon Light Source. Detection was performed by photomultiplier tubes (PMT-NIR) cooled detector or by TBX-04 detector. Dye solutions were carefully prepared to have an absorbance lower than 0.1 (optical densities) to minimize re-absorption phenomena. The compounds of the invention have been characterized in terms of their optical properties in vitro in aqueous medium (i.e., water/PBS pH 7.4) and in a clinical chemistry control serum (Seronorm, Sero SA), mimicking the chemical composition and optical properties of human serum. All dye or dye-conjugate solutions were freshly prepared.

[4] = system: HT-29 cells; experiment: Tumor uptake by optical imaging, subcutaneous human colorectal cancer model; type: in vivo, Athymic nude mice; settings: iv 1 nmol, tumor vs muscle
Method: Parallel experiments were performed in an animal model of human colorectal cancer (subcutaneous), using HT-29 cells, expressing low levels of integrin receptors. Briefly, the human colorectal adenocarcinoma cells HT-29 (ATCC, HTB-38) were cultured in McCoy's 5A medium supplemented with 10% foetal bovine serum, 2 mM glutamine, 100 IU/mL penicillin and 100 μg/mL streptomycin. Male Athymic nude mice, 4-6 weeks of age (Envigo), underwent subcutaneous implantation (right flank) of about 5 million cells suspended in 0.1 mL of serum-free medium. Mice were housed 4 per cage with food and water ad libitum. […] Then, AIN-76a rodent diet irradiated (Research Diets), a special diet that reduces auto-fluorescence, was used up to the end of the experiments. Tumor growth was monitored by longitudinal assessments using a caliper up to the target size of 300-600 mm^3 (3-4 weeks after cell implantation). […]
(§1) In vivo imaging was performed under gas anesthesia (Sevofluorane 6-8% in oxygen). […] Regions of interest (ROIs) were drawn on the tissues of interest for each fluorescence image at every time point to evaluate signal intensity (expressed as Average Radiant Efficiency). The ratio between the fluorescence signal in the tumor and in the muscle (background tissue) was then calculated to assess the contrast.

[5] = system: U87MG cells; experiment: Tumor uptake by optical imaging, subcutaneous human glioblastoma model; type: in vivo, Balb/c nu/nu mice; settings: iv 1 nmol, 1-2 hours after administration, tumor vs muscle
Method: Tumor uptake experiments were carried out in an animal model of human glioblastoma (subcutanous) overexpressing the integrin receptors, particularly αvβ3. Briefly, human glioblastoma U87MG cells (ATCC, HTB-14) were cultured in Eagle's Minimum Essential Medium (EMEM) supplemented with 10% Fetal Bovine Serum (FBS), 2 mM glutamine, 100 IU/mL penicillin, 100 μg/mL streptomycin. Male Balb/c nu/nu mice, 4-6 weeks of age (Charles River Laboratories), underwent subcutaneous implantation (right flank) of about 10 million cells suspended in 0.1 mL of EMEM. Mice were housed 4 per cage with food and water ad libitum. […] Then, AIN-76a rodent diet irradiated (Research Diets), a special diet that reduces auto-fluorescence, was used up to the end of the experiments. Tumor growth was monitored by longitudinal assessments using a caliper up to the target size of 300-600 mm^3 (3-4 weeks after cell implantation). […]
as §1

CC(CC[N+]1=C(/C=C/C=C/C=C/C=C2/N(CCCCCC(=O)NCCCC[C@@H]3NC(=O)C(Cc4ccccc4)NC(=O)[C@H](CC(=O)O)NC(=O)CNC(=O)[C@H](CCCNC(=N)N)NC3=O)c3ccc(C(=O)NCC(O)C(O)C(O)C(O)CO)cc3C2(C)C)C(C)(C)c2cc(C(=O)NCC(O)C(O)C(O)C(O)CO)ccc21)S(=O)(=O)[O-] (stereo partly shown) [Compound 1]
IC50 [1]: 2.96 ± 0.49 nM | Residual uptake in the presence of 4% HSA ([2]; 1 μM, 2h at 37° C.): 70% | Residual cell uptake in presence of human serum ([2]; 1 μM, 2h at 37° C., uptake without serum = 100%): 80% | Residual uptake in the presence of c(RGDfK) as competitor ([2]; 100 μM c(RGDfK), uptake without competitor = 100%): 10% | Max Em ([3]; PBS pH 7.4): 786 nm | Max Ex ([3]; PBS pH 7.4): 757 nm | Φ (absolute fluorescence quantum yield) ([3]; PBS pH 7.4): 9.8% | Φ (absolute fluorescence quantum yield) ([3]; Seronorm control serum): 13.0% | Tumor-to-background ratio (TBR) [4]: 1.2-1.5 | Tumor-to-background ratio (TBR) [5]: 2-2.5
